Measured values published in patent US20240228463A1, “SODIUM CHANNEL INHIBITORS AND METHODS OF DESIGNING SAME” (Genentech, Inc., priority 2021, published 2024).

What follows are compounds tested against T1, hNaV1.7 (Homo sapiens, UniProt Q15858) (assay: Patch voltage clamp electrophysiology (EP), Syncropatch 384PE, Nav1.7 in CHO cells). Conditions: holding potential −50 mV, inhibition based on 7.5 min compound incubation, read-out: hNaV1.7 EP_SP.
T1 construct: expressed in transfected cells
Format: cell-based
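Also: Nav1.7 stably expressed from cDNA in CHO cells, holding potential of −50 mV kept for the entire experiment.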

T1 sequence (Q15858 1-1977 isoform Q15858-3): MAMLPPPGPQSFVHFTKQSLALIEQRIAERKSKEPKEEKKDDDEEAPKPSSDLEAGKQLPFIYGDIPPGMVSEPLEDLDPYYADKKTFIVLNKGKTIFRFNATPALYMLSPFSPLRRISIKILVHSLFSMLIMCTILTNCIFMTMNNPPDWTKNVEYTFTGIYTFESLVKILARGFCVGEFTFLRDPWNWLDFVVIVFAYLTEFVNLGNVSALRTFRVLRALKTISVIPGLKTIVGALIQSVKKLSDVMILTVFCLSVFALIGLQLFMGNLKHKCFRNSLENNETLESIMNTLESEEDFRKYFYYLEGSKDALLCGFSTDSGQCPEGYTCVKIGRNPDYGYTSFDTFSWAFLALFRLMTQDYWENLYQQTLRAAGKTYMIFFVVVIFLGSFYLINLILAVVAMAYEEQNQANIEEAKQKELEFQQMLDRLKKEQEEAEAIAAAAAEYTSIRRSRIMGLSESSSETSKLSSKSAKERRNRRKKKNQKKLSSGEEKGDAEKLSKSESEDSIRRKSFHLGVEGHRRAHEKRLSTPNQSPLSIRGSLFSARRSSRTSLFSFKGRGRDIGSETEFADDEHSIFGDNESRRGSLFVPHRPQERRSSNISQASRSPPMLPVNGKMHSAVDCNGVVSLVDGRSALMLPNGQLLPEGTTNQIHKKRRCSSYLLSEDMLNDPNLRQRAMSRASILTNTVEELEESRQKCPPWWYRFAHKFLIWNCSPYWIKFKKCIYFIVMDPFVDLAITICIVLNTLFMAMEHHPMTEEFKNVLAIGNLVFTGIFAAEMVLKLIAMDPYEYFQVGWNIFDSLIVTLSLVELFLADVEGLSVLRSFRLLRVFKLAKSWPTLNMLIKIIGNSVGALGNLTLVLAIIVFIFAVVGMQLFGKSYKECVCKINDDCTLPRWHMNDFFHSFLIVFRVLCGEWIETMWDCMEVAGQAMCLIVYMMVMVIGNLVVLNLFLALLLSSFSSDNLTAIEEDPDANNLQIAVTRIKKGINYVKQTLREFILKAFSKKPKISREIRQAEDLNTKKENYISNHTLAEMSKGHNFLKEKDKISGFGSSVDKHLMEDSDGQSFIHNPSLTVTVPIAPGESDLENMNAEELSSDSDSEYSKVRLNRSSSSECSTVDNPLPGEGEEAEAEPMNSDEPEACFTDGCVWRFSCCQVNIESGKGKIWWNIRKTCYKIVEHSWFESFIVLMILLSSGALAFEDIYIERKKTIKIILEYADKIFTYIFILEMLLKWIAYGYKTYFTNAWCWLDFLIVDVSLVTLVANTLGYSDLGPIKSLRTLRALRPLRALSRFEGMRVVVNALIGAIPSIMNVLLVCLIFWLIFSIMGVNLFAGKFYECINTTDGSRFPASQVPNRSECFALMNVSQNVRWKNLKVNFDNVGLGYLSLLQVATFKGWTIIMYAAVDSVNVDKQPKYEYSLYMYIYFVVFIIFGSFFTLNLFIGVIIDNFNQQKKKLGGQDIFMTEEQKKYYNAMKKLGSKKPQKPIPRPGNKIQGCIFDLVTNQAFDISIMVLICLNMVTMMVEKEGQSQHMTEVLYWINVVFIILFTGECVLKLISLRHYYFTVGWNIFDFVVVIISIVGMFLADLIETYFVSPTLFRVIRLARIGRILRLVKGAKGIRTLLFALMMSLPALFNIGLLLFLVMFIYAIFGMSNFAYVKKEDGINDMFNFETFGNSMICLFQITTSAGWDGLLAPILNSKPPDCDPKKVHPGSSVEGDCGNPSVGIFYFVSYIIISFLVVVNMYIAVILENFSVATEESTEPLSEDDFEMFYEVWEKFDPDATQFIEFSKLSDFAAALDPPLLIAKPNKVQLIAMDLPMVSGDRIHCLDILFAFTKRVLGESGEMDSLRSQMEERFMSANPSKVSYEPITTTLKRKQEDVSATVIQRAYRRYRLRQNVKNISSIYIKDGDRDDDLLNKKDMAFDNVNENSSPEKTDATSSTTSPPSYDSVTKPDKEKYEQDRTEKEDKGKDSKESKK

SMILES	IC50 [µM]
O=C(NS(=O)(=O)C1CCCCC1)c1cc(Cl)c(OCC2CCCC2)cc1F [Example 82, 5-chloro-N-(cyclohexylsulfonyl)-4-(cyclopentylmethoxy)-2-fluorobenzamide]	0.03
O=C(NS(=O)(=O)C1CC12CCC2)c1cc(Cl)c(OCC2CCCC2)cc1F (stereo not drawn) [Example 256, 5-chloro-4-(cyclopentylmethoxy)-2-fluoro-N-(spiro[2.3]hexan-1-ylsulfonyl)benzamide]	0.013
CN(C)[C@H]1CCCC[C@@H]1Oc1ccc(S(=O)(=O)NC(=O)c2cc(C3CC3)c(OCC3CCCC3)cc2F)c(F)c1 [Example 65, 4-(cyclopentylmethoxy)-5-cyclopropyl-N-((4-(((1S,2S)-2-(dimethylamino)cyclohexyl)oxy)-2-fluorophenyl)sulfonyl)-2-fluorobenzamide]	0.025
Cc1ccccc1S(=O)(=O)NC(=O)c1cc(Cl)c(OCC2CCCC2)cc1F [Example 242, 5-chloro-4-(cyclopentylmethoxy)-2-fluoro-N-(o-tolylsulfonyl)benzamide]	0.11
CN(C)C1(C)CCCN(c2cc(F)c(S(=O)(=O)NC(=O)c3cc(Cl)c(OCC4CCCC4)cc3F)c(F)c2)C1 (stereo not drawn) [Example 76, 5-chloro-4-(cyclopentylmethoxy)-N-((4-(3-(dimethylamino)-3-methylpiperidin-1-yl)-2,6-difluorophenyl)sulfonyl)-2-fluorobenzamide]	0.032
O=C(NS(=O)(=O)N1CCC(OC2CCCNC2)CC1)c1cc(Cl)c(OCC2CCCC2)cc1F (racemic) [Example 51, 5-chloro-4-(cyclopentylmethoxy)-2-fluoro-N-((4-(piperidin-3-yloxy)piperidin-1-yl)sulfonyl)benzamide 2,2,2-trifluoroacetate]	0.068
O=C(NS(=O)(=O)N1CCC(OC2CNC2)CC1)c1cc(C2CC2)c(OCC2CCCC2)cc1F [Example 47, N-((4-(azetidin-3-yloxy)piperidin-1-yl)sulfonyl)-4-(cyclopentylmethoxy)-5-cyclopropyl-2-fluorobenzamide]	0.036
Cc1cc(C(=O)NS(=O)(=O)N2CCC(OC3CN(C)C3)CC2)c(F)cc1OCC1CCCC1 [Example 2, 4-(cyclopentylmethoxy)-2-fluoro-5-methyl-N-((4-((1-methylazetidin-3-yl)oxy)piperidin-1-yl)sulfonyl)benzamide]	0.064
O=C(NS(=O)(=O)N1CCC(CC2CNC2)CC1)c1cc(Cl)c(OCC2CCCC2)cc1F [Example 40, N-((4-(azetidin-3-ylmethyl)piperidin-1-yl)sulfonyl)-5-chloro-4-(cyclopentylmethoxy)-2-fluorobenzamide 2,2,2-trifluoroacetate]	0.059
CN(C)[C@H]1CCCC[C@@H]1Nc1cc(F)c(S(=O)(=O)Nc2ccc(OCCCc3ccc(C(F)(F)F)cc3)cn2)cc1Cl [Example 103, 5-chloro-4-(((1S,2S)-2-(dimethylamino)cyclohexyl)amino)-2-fluoro-N-(5-(3-(4-(trifluoromethyl)phenyl)propoxy)pyridin-2-yl) benzenesulfonamide]	0.22

Second part, the compound after the results:

IC50 [µM]	SMILES
0.35	CCOc1ccc(S(=O)(=O)NC(=O)c2cc(Cl)c(OCC3CCCC3)cc2F)cn1 [Example 285, 5-chloro-4-(cyclopentylmethoxy)-N-((6-ethoxypyridin-3-yl)sulfonyl)-2-fluorobenzamide]
0.79	O=C(NS(=O)(=O)C1CCNCC1)c1cc(Cl)c(OCC2CCCC2)cc1F [Example 324, 5-chloro-4-(cyclopentylmethoxy)-2-fluoro-N-(piperidin-4-ylsulfonyl)-benzamide]
0.31	NCCCOc1ccc(S(=O)(=O)NC(=O)c2cc(Cl)c(OCC3CCCC3)cc2F)cc1 [Example 314, N-((4-(3-aminopropoxy)phenyl)sulfonyl)-5-chloro-4-(cyclopentylmethoxy)-2-fluorobenzamide]
0.26	O=C(NS(=O)(=O)c1ccc2c(c1)CCO2)c1cc(Cl)c(OCC2CCCC2)cc1F [Example 271, 5-chloro-4-(cyclopentylmethoxy)-N-((2,3-dihydrobenzofuran-5-yl)sulfonyl)-2-fluorobenzamide]
0.79	O=C(NS(=O)(=O)c1cnn(-c2cccc(C(F)(F)F)c2)c1)c1cc(Cl)c(OCC2CCCC2)cc1F [Example 259, 5-chloro-4-(cyclopentylmethoxy)-2-fluoro-N-((1-(3-(trifluoromethyl)phenyl)-1H-pyrazol-4-yl)sulfonyl)benzamide]
